# Source: patent publication US11167005B2, “Peptides for treating Sjogren's syndrome” (YEDA RESEARCH AND DEVELOPMENT CO. LTD., priority 2017, dated 2021)
# “Also recorded” adds a separate entry of the source.
# How the values were obtained:
# TGF-β = TGF-β gene expression in PBMCs of SS patients, real-time RT-PCR; format: cell-based, human; details: 48 hours; for expression of the gene for TGF-β: PBMCs isolated from SS patients, p=0.012 vs medium alone, p=0.028 vs control peptide
# Experimental: (§1) 5×10^6/mL peripheral blood mononuclear cells (PBMCs) obtained from blood samples of rheumatoid arthritis (RA) patients, anti-phospholipid syndrome patients (APS) and SS patients were incubated in-vitro in: medium alone, medium containing 25 μg/mL hCDR1 (SEQ ID NO: 1), or medium containing 25 μg/mL of control scrambled peptide (SEQ ID NO: 2). Following 48 hours of incubation, cells were collected and mRNA was prepared from all samples. The expression of various genes was determined using real-time RT-PCR. The control peptide has the same amino acid residues as SEQ ID NO:1 in a scrambled order.
# PBMCs of patients with pSS were isolated and incubated in vitro for 48 hours in the presence of medium, hCDR1 (SEQ ID NO: 1) or a control scrambled peptide (SEQ ID NO: 2). Thereafter, RNA was extracted from the cells and gene expression was determined by real-time RT-PCR.
# IDO [1] = experiment: IDO gene expression in PBMCs of pSS patients, real-time RT-PCR; format: cell-based, human; details: for IDO gene expression on addition of recombinant cytokine to cultures of PBMCs with hCDR1: compared with hCDR1 alone (FIG. 3C)
# Experimental: Following 48 hours of incubation, cells were collected and mRNA was prepared from all samples. The expression of various genes was determined using real-time RT-PCR.
# Thereafter, RNA was extracted from the cells and gene expression was determined by real-time RT-PCR.
# Since both IL-1β and IFN-α were reported to increase the production and expression of IDO, the effects of the addition of recombinant IL-1β or IFN-α to cultures of PBMCs with hCDR1 on IDO gene expression were further tested.
# (§2) The effect of IDO inhibition on the expression of the suppressive master gene FOXP3, that is expressed on functional T regulatory cells, was tested.
# FOXP3 = FOXP3 gene expression in PBMCs of SS patients, real-time RT-PCR; format: cell-based, human
# Experimental: as §1, §2
# IL-1β = IL-1β gene expression in PBMCs of SS patients, real-time RT-PCR; format: cell-based, human; details: 25 μg/mL, 48 hours
# Experimental: as §1
# TNF-α = TNF-α gene expression in PBMCs of SS patients, real-time RT-PCR; format: cell-based, human; details: 25 μg/mL, 48 hours
# Experimental: as §1
# MX1 = MX1 gene expression in PBMCs of SS patients, real-time RT-PCR; format: cell-based, human; details: 25 μg/mL, 48 hours
# Experimental: as §1
# BLyS = BLyS gene expression in PBMCs of SS patients, real-time RT-PCR; format: cell-based, human; details: 25 μg/mL, 48 hours
# Experimental: as §1
# pathogenic cytokines [2] = experiment: Gene expression of pathogenic cytokines in PBMCs of rheumatoid arthritis patients; format: cell-based, human; details: 25 μg/mL, 48 hours, vs medium alone or control peptide (FIG. 1A)
# Experimental: as §1
# pathogenic cytokines [3] = experiment: Gene expression of pathogenic cytokines in PBMCs of anti-phospholipid syndrome patients; format: cell-based, human; details: 25 μg/mL, 48 hours, vs medium alone or control peptide (FIG. 1B)
# Experimental: as §1
# IDO [4] = experiment: IDO gene expression in PBMCs of subjects with RA; format: cell-based, human; details: 48 hours (FIG. 3B)
# DNA = details: background statement; cited from earlier work
# anti-DNA antibodies = details: background statement; cited from earlier work
# SLE in murine models = details: cited from earlier work
# [5] = Phase Ia and Ib clinical studies, humans; cited from earlier work
# SLE patients = details: Phase II clinical trial in SLE patients (Urowitz et al. 2015); cited from earlier work
# [6] = PBMCs of pSS patients, compared with hCDR1 alone (FIG. 3D)
# [7] = vs medium alone and control scrambled peptide (FIG. 2)
# [8] = FOXP3 gene, PBMCs of SS patients, 25 μg/mL, 48 hours
# [9] = IDO gene, PBMCs of SS patients, 48 hours
# [10] = TGF-β gene, PBMCs of SS patients
compound,measurement,setting,value
"SKGIPQYGGWPWEGWRYEI [control scrambled peptide, Control peptide, reference compound]",expression of the gene for TGF-β,TGF-β,not
IL-1β: recombinant IL-1β added to cultures of PBMCs with hCDR1,IDO gene expression on addition of recombinant cytokine to cultures of PBMCs with hCDR1,IDO [1],increased IDO gene expression to levels much higher
"Cn1cc(C[C@@H](N)C(=O)O)c2ccccc21 [1 mT, 1-methyl-D-tryptophan, reference compound]",FOXP3 expression on addition of 1 mT to PBMC cultures with hCDR1,FOXP3; [6],significant down-regulation
same,IDO gene expression on addition of 1 mT to PBMC cultures with hCDR1,IDO [1]; [6],significant decrease
"GYYWSWIRQPPGKGEEWIG [hCDR1, 19-amino-acid synthetic peptide based on CDR1 of the heavy chain of human anti-DNA mAb 16/6Id]",gene expression of IL-1β,IL-1β; [7],significant reduction; also recorded: significant effects
same,Modulation by hCDR1,IL-1β; IL-1β gene,Downregulation
same,"Percent responders exhibiting gene expression modulation, hCDR1 compared to control peptide",IL-1β; IL-1β gene,(61.5%)
same,"Percent responders exhibiting gene expression modulation, hCDR1 compared to medium",IL-1β; IL-1β gene,(86%)
same,"Responders/Total, hCDR1 compared to control peptide",IL-1β; IL-1β gene,8/13
same,"Responders/Total, hCDR1 compared to medium",IL-1β; IL-1β gene,12/14
same,gene expression of TNF-α,TNF-α; [7],significant reduction; also recorded: significant effects
same,Modulation by hCDR1,TNF-α; TNF-α gene,Downregulation
same,"Percent responders exhibiting gene expression modulation, hCDR1 compared to control peptide",TNF-α; TNF-α gene,(61.5%)
same,"Percent responders exhibiting gene expression modulation, hCDR1 compared to medium",TNF-α; TNF-α gene,(78.5%)
same,"Responders/Total, hCDR1 compared to control peptide",TNF-α; TNF-α gene,8/13
same,"Responders/Total, hCDR1 compared to medium",TNF-α; TNF-α gene,11/14
same,gene expression of MX1,MX1; [7],significant reduction; also recorded: significant effects
same,Modulation by hCDR1,MX1; MX1 gene,Downregulation
same,"Percent responders exhibiting gene expression modulation, hCDR1 compared to control peptide",MX1; MX1 gene,(77%)
same,"Percent responders exhibiting gene expression modulation, hCDR1 compared to medium",MX1; MX1 gene,(77%)
same,"Responders/Total, hCDR1 compared to control peptide",MX1; MX1 gene,10/13
same,"Responders/Total, hCDR1 compared to medium",MX1; MX1 gene,10/13
same,gene expression of the BLyS gene,BLyS; [7],significant reduction
same,Modulation by hCDR1,BLyS; BLyS gene,Downregulation
same,"Percent responders exhibiting gene expression modulation, hCDR1 compared to control peptide",BLyS; BLyS gene,(50%)
same,"Percent responders exhibiting gene expression modulation, hCDR1 compared to medium",BLyS; BLyS gene,(70.5%)
same,"Responders/Total, hCDR1 compared to control peptide",BLyS; BLyS gene,6/12
same,"Responders/Total, hCDR1 compared to medium",BLyS; BLyS gene,12/17
same,Modulation by hCDR1,FOXP3; [8],Upregulation
same,"Percent responders exhibiting gene expression modulation, hCDR1 compared to control peptide",FOXP3; [8],(58%)
same,"Percent responders exhibiting gene expression modulation, hCDR1 compared to medium",FOXP3; [8],(75%)
same,"Responders/Total, hCDR1 compared to control peptide",FOXP3; [8],7/12
same,"Responders/Total, hCDR1 compared to medium",FOXP3; [8],12/16
same,gene expression of the FOXP3 gene,"FOXP3; PBMCs of SS patients, 25 μg/mL, 48 hours, vs medium alone and control scrambled peptide (FIG. 2)",significant increase
same,Modulation by hCDR1,IDO [1]; [9],Upregulation
same,"Percent responders exhibiting gene expression modulation, hCDR1 compared to control peptide",IDO [1]; [9],(69%)
same,"Percent responders exhibiting gene expression modulation, hCDR1 compared to medium",IDO [1]; [9],(81%)
same,"Responders/Total, hCDR1 compared to control peptide",IDO [1]; [9],9/13
same,"Responders/Total, hCDR1 compared to medium",IDO [1]; [9],13/16
same,expression of the IDO gene,"IDO [1]; PBMCs of patients with pSS, 48 hours, vs medium alone or control peptide (FIG. 3A)",up-regulated significantly
same,expression of the gene for TGF-β,TGF-β,significantly up-regulated
same,Modulation by hCDR1,TGF-β; [10],Upregulation
same,"Percent responders exhibiting gene expression modulation, hCDR1 compared to control peptide",TGF-β; [10],(72.7%)
same,"Percent responders exhibiting gene expression modulation, hCDR1 compared to medium",TGF-β; [10],(70.5%)
same,"Responders/Total, hCDR1 compared to control peptide",TGF-β; [10],8/11
same,"Responders/Total, hCDR1 compared to medium",TGF-β; [10],12/17
same,gene expression of pathogenic cytokines,pathogenic cytokines [2],No significant effects; also recorded: non-significant effects
same,gene expression of pathogenic cytokines,pathogenic cytokines [3],No significant effects; also recorded: non-significant effects
same,expression of IDO,IDO [4],did not affect significantly
same,binding to DNA,DNA,does not bind
same,binding to anti-DNA antibodies,anti-DNA antibodies,does not bind
same,serological and clinical disease manifestations of SLE,SLE in murine models,ameliorate serological and clinical disease manifestations
same,safety and tolerability,[5],safe and well tolerated
same,effects on several parameters,SLE patients,beneficial effects
IFN-α,IDO gene expression on addition of recombinant cytokine to cultures of PBMCs with hCDR1,IDO [1],increased IDO gene expression to levels much higher
